Source: patent US20030187035A1, “Substituted hydrazones as inhibitors of cyclooxygenase-2” (priority 2001, published 2003)

What was measured:
DLD-1 cells = experiment: Soft agar assay, anchorage-independent colony growth; type: cell-based; details: DLD-1 human colorectal carcinoma cells in soft agar, three weeks
Experimental: The Example 2, 3, 4 and 9 compounds were compared to the COX-2 inhibitor celecoxib in inhibiting the growth of DLD-1 cells in soft agar. DLD-1 cells are human colorectal carcinoma cells that overexpress COX-2. DLD-1 cells grow in soft agar and form tumors in nude mice. The soft agar assay was performed as follows. Bottom agar was first prepared as a 3 mL layer of 0.8% noble agar prepared in complete growth medium (DMEM containing 10% FBS and 500 units of penicillin-streptomycin) and placed into 60 mm^2 tissue culture dishes. The tumor cells were trypsinized from normal growth flasks while in exponential growth. The cells were counted by using a hemacytometer and 5.0×10^4 viable cells were mixed with 0.4% noble agar containing growth medium and various concentrations of drugs. Non-treated control plates received DMSO alone. Each drug concentration was run in duplicate. The concentration range was normally between 10 μM to 75 μM. The plates were incubated at 37° C. under 95% humidity for three weeks and stained with a 0.05% (w/v) nitroblue tetrazolium solution. This solution will only stain viable cells so that all growing cell in the form of colonies will appear blue. The plates were photographed using an Olympus stereoscope mounted with a SONY digital camera system.

HT29 = experiment: In vitro cytotoxicity assay (trypan exclusion, viable cell count); type: cell-based; details: HT-29; HT29 human colo-rectal carcinoma, 96 hours
Experimental: (§1) The human colo-rectal carcinoma cell lines DLD-1, HT29, and HCT 116, and the human prostate carcinoma cell line DU145, were grown exponentially and plated onto 6 well dishes at a cell density of 1.0×10^5 cells per 35 mm well. Various concentration of 4-bromobenzaldehyde-4-sulfamylphenylhydrazone (Ex. 4) or DMSO were added 24 hours later. The number of viable cells were determined at each concentration tested 96 hours later by trypan exclusion using a hemacytometer. The GI50 (concentration of drug that inhibits 50% of tumor cell growth when compared to tumor cells treated with same volume of DMSO) was determined for each cell line.
The same protocol was used to compare the growth inhibitory activity of 4-bromobenzaldehyde-4-sulfamylphenylhydrazone and celecoxib against the human colo-rectal tumor cell line HT29. The data are plotted as the percent of viable cells remaining as compared to DMSO (non-treated) cells.

mice = experiment: In vivo toxicity assay, survival after intraperitoneal dosing; details: survival at seven days
Experimental: The compound of Example 4 was examined for in vivo toxicity in mice. Mice received intraperitoneal doses of compound suspended in DMSO, ranging from 25 to 400 mg/kg. Survival at seven days was determined.

[1] = Bioavailability assay, plasma drug concentration after intraperitoneal injection; type: in vivo; details: mice; for concentration at 120 min: mouse, plasma, ip, 120 minutes post injection
Experimental: The bioavailability of compound of Example 4 was examined as follows. Mice received a single dose (25 or 50 mg/kg) of compound suspended in DMSO via intraperitoneal injection. Plasma drug concentration was measured 120 minutes post injection.

DU145 = experiment: In vitro cytotoxicity assay (trypan exclusion, viable cell count); type: cell-based; details: DU-145; DU145 human prostate carcinoma, 96 hours
Experimental: as §1

HCT116 = experiment: as above; type: cell-based; details: HCT-116; HCT116 human colo-rectal carcinoma, 96 hours
Experimental: as §1

DLD-1 = experiment: as above; type: cell-based; details: DLD-1 human colo-rectal carcinoma, 96 hours
Experimental: as §1

## NS(=O)(=O)c1ccc(NN=Cc2ccc(F)cc2)cc1 [Example 2, 4-Fluorobenzaldehyde-4-sulfamylphenylhydrazone]
DLD-1 cells
  Concentration Required for Complete DLD-1 Colony Growth Inhibition: 30 µM

## NS(=O)(=O)c1ccc(NN=Cc2ccc(Cl)cc2)cc1 [Example 3, 4-Chlorobenzaldehyde-4-sulfamylphenylhydrazone]
DLD-1 cells
  Concentration Required for Complete DLD-1 Colony Growth Inhibition: 20 µM

## NS(=O)(=O)c1ccc(NN=Cc2ccc(Br)cc2)cc1 [Example 4, 4-Bromobenzaldehyde-4-sulfamylphenylhydrazone]
DLD-1 cells
  Concentration Required for Complete DLD-1 Colony Growth Inhibition: <20 µM
DLD-1 cells; listed as Ex. 4
  Concentration Required for Complete DLD-1 Colony Growth Inhibition: 20 µM
HT29
  GI50: 8 µM
mice; 25 mg/kg intraperitoneal
  Percent Survival of Mice: 100%
mice; 50 mg/kg intraperitoneal
  Percent Survival of Mice: 100%
mice; 100 mg/kg intraperitoneal
  Percent Survival of Mice: 100%
mice; 200 mg/kg intraperitoneal
  Percent Survival of Mice: 100%
mice; 400 mg/kg intraperitoneal
  Percent Survival of Mice: 80%
mice; intraperitoneal doses 25 to 400 mg/kg
  In vivo toxicity in mice (in words): very low mammalian toxicity
[1]; single dose 25 or 50 mg/kg intraperitoneal
  Bioavailability (in words): high level of bioavailability
[1]; single dose 25 mg/kg intraperitoneal
  concentration at 120 min: 38 µg/mL
[1]; single dose 50 mg/kg intraperitoneal
  concentration at 120 min: 165 µg/mL
DU145
  GI50: 30 µM
HCT116
  GI50: 30 µM
DLD-1
  GI50: 30 µM

## COc1ccc(C=NNc2ccc(S(N)(=O)=O)cc2)cc1 [Example 9, 4-Methoxybenzaldehyde-4-sulfamylphenylhydrazone]
DLD-1 cells
  Concentration Required for Complete DLD-1 Colony Growth Inhibition: >75 µM

## Cc1ccc(-c2cc(C(F)(F)F)nn2-c2ccc(S(N)(=O)=O)cc2)cc1 [celecoxib, reference compound]
HT29
  GI50: 25 µM
